In patent US20230330254A1 (Regeneron Pharmaceuticals, Inc., priority 2022, published 2023):
Where two headings read alike, the source gives them in different places. *1 amine or outer side, *2 acyl side, *3 side chain or, on linkers, in order; H or OH if unused. Where a SMILES comes first, the peptide text is derived from it. Side-chain parts run from the residue outwards. [ ]: non-standard residue; d: D form. The star is where a group is joined. PEG24 = NCCOCCOCCOCCOCCOCCOCCOCCOCCOCCOCCOCCOCCOCCOCCOCCOCCOCCOCCOCCOCCOCCOCCOCCOCCC(=O)O; Bip(2'-Et-4'-O(CH2)4NH2) = CCc1cc(OCCCCN[*:3])ccc1-c1ccc(C[C@H](N[*:1])C(=O)[*:2])cc1; Bip(2'-Et,4'-O(CH2)4N3) = CCc1cc(OCCCCN=[N+]=[N-])ccc1-c1ccc(C[C@H](N)C(=O)O)cc1; Malonyl(2,2-Me2,histaminyl) = CC(C)(C(=O)NCCc1cnc[nH]1)C(=O)*; PEG12 = NCCOCCOCCOCCOCCOCCOCCOCCOCCOCCOCCOCCOCCC(=O)O; Nva(5-(3,5-Me2Ph)) = Cc1cc(C)cc(CCC[C@H](N)C(=O)O)c1; Ala(1H-tetrazol-5-yl) = N[C@@H](Cc1nnn[nH]1)C(=O)O; αMePhe(2-F) = C[C@](N)(Cc1ccccc1F)C(=O)O; DBCO = C1#Cc2ccccc2N(*)Cc2ccccc21; Suc = O=C(CCC(=O)[*:2])[*:1]; X2 = CC(C)(C(N)=O)C(=O)*

What was measured:
[1] = system: HEK293/CRE-Luc cells; assay: Luciferase reporter assay, HEK293/CRE-Luc cells without GLP1R (Example 17); assay type: cell-based, human; details: HEK293/CRE-Luc cells without hGLP1R, payloads and linker-payloads; for EC50: read-out: EC50
From the text: (§1) To test the activity of GLP1R agonist payloads, GLP1R agonist linker-payloads (LPs), and anti-GLP1R antibody tethered drug conjugates (ATDCs) of the invention, a cell-based cAMP responsive luciferase reporter assay was developed. To generate the assay cell line, the firefly luciferase gene was placed under the control of a cAMP response element (CRE) located upstream of a minimal promoter and transfected into HEK293 cells and referred to herein as HEK293/CRE-Luc cells.
(§2) Three-fold serial dilutions of free payloads or LPs were prepared in 100% DMSO, transferred to fresh assay media, and added to the cells at a final constant DMSO concentration of 0.2%. The last well in the plate served as a blank control containing only the assay media and 0.2% DMSO (untreated well) and was plotted as a continuation of the 3-fold serial dilution. Four to six hours later, luciferase activity was determined after the addition of One-Glo™ reagent (Promega, Cat #E6130) to each well. Relative light units (RLUs) were measured on an Envision luminometer (PerkinElmer) and EC50 values were determined using a four-parameter logistic equation over a 12-point dose response curve (GraphPad Prism). The signal to noise (S/N) was determined by taking the ratio of the highest RLU on the dose response curve to the RLU in the untreated wells. Data was generated across several experiments (A-E) with M2361 serving as a reference standard in each experiment to calculate the payload relative potency ((M2361 EC50/payload EC50)*100)) and relative S/N ((payload SN/M2361 SN)*100)).

[2] = target: human GLP1R (Homo sapiens, UniProt P43220); assay: Luciferase reporter assay, HEK293/CRE-Luc/hGLP1R (Example 17); assay type: cell-based; set-up: engineered to express full-length human GLP1R, cynomolgus GLP1R; expressed in transfected cells; host or cells: HEK293/CRE-Luc; details: for S/N: highest RLU / RLU of untreated wells; for Relative Potency (% M2361 EC50) / Relative Signal:Noise (% M2361): relative to M2361 of the same experiment
From the text: as §1, §2

[3] = HEK293/CRE-Luc/hGLP1R, payloads and linker-payloads, experiments A-E, M2361 repeated in each, read-out: EC50

Sequence of human GLP1R (P43220 24-463): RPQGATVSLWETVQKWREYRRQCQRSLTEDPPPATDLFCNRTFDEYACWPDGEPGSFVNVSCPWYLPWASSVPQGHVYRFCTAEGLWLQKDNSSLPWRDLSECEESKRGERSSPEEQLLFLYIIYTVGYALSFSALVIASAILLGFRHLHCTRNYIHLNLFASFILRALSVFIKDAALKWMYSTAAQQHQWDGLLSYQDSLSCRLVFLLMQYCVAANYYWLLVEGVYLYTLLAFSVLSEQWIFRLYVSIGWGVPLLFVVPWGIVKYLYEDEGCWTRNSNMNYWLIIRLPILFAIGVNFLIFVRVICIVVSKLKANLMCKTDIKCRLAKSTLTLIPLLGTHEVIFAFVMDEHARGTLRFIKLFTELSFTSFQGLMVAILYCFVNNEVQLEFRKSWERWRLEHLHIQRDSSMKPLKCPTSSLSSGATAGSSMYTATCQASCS

Row | S/N ([2]; HEK293/CRE-Luc/hGLP1R) | EC50 [2, 3] [nM] | Relative Potency (% M2361 EC50) ([2]; HEK293/CRE-Luc/hGLP1R) [%] | Relative Signal:Noise (% M2361) ([2]; HEK293/CRE-Luc/hGLP1R) [%] | Structure (SMILES) | S/N [1] | EC50 [1] [nM] | EC50 ([2]; text b1830, read-out: EC50 in HEK293/CRE-Luc/hGLP1R cells) [nM]
1 | 74.9 | 0.184 | 2.9 | 113.9 | CCc1cc(OCCCCN)ccc1-c1ccc(C[C@H](NC(=O)[C@H](CC(=O)O)NC(=O)[C@H](CO)NC(=O)[C@@H](NC(=O)[C@](C)(Cc2ccccc2F)NC(=O)[C@@H](NC(=O)CNC(=O)[C@H](Cc2nn[nH]n2)NC(=O)C2(C)CCN(CCc3cnc[nH]3)C2=O)[C@@H](C)O)[C@@H](C)O)C(=O)N[C@@H](CCCc2cc(C)cc(C)c2)C(N)=O)cc1 (stereo in doubt) [P14] | 1.6 | > 200 | 
2 | 293.2 | 0.0976 | 28.0 | 124.3 | CCc1cc(OCCCCNC(=O)CCOCCOCCOCCOCCOCCOCCOCCOCCOCCOCCOCCOCCNC(=O)CCC(=O)N2Cc3ccccc3C#Cc3ccccc32)ccc1-c1ccc(C[C@H](NC(=O)[C@H](CC(=O)O)NC(=O)[C@H](CO)NC(=O)[C@@H](NC(=O)[C@](C)(Cc2ccccc2F)NC(=O)[C@@H](NC(=O)CNC(=O)[C@H](Cc2nn[nH]n2)NC(=O)C(C)(C)C(=O)NCCc2cnc[nH]2)[C@@H](C)O)[C@@H](C)O)C(=O)N[C@@H](CCCc2cc(C)cc(C)c2)C(N)=O)cc1 [LP3, DIBAC-suc-PEG12-P9] ({Malonyl(2,2-Me2,histaminyl)}-[Ala(1H-tetrazol-5-yl)]GT[αMePhe(2-F)]TSD[Bip(2'-Et-4'-O(CH2)4NH2)]([PEG12-Suc-DBCO])[Nva(5-(3,5-Me2Ph))]-NH2) |  |  | 
3 | 79.3 | 4.83 | 0.2 | 110.2 | CCc1cc(OCCCCNC(=O)CCOCCOCCOCCOCCOCCOCCOCCOCCOCCOCCOCCOCCOCCOCCOCCOCCOCCOCCOCCOCCOCCOCCOCCOCCNC(=O)CCC(=O)N2Cc3ccccc3C#Cc3ccccc32)ccc1-c1ccc(C[C@H](NC(=O)[C@H](CC(=O)O)NC(=O)[C@H](CO)NC(=O)[C@@H](NC(=O)[C@](C)(Cc2ccccc2F)NC(=O)[C@@H](NC(=O)CNC(=O)[C@H](Cc2nn[nH]n2)NC(=O)C(C)(C)C(N)=O)[C@@H](C)O)[C@@H](C)O)C(=O)N[C@@H](CCCc2cc(C)cc(C)c2)C(N)=O)cc1 [LP13, DIBAC-suc-PEG24-P4] (X2-[Ala(1H-tetrazol-5-yl)]GT[αMePhe(2-F)]TSD[Bip(2'-Et-4'-O(CH2)4NH2)]([PEG24-Suc-DBCO])[Nva(5-(3,5-Me2Ph))]-NH2) | 1.3 | > 20 | 
4 | 78.1 | 0.366 | 2.2 | 108.6 | CCc1cc(OCCCCNC(=O)[C@H](CO)NC(=O)CNC(=O)CNC(=O)CNC(=O)CNC(=O)CCC(=O)N2Cc3ccccc3C#Cc3ccccc32)ccc1-c1ccc(C[C@H](NC(=O)[C@H](CC(=O)O)NC(=O)[C@H](CO)NC(=O)[C@@H](NC(=O)[C@](C)(Cc2ccccc2F)NC(=O)[C@@H](NC(=O)CNC(=O)[C@H](Cc2nn[nH]n2)NC(=O)C(C)(C)C(N)=O)[C@@H](C)O)[C@@H](C)O)C(=O)N[C@@H](CCCc2cc(C)cc(C)c2)C(N)=O)cc1 [LP14, DIBAC- suc-G4S- P4] | 1.3 | > 20 | 
5 | 267.8 |  | 38.6 | 81.7 | CCc1cc(OCCCCNC(=O)CCOCCOCCOCCOCCOCCOCCOCCOCCOCCOCCOCCOCCOCCOCCOCCOCCOCCOCCOCCOCCOCCOCCOCCOCCNC(=O)CCC(=O)N2Cc3ccccc3-c3nn[nH]c3-c3ccccc32)ccc1-c1ccc(C[C@H](NC(=O)[C@H](CC(=O)O)NC(=O)[C@H](CO)NC(=O)[C@@H](NC(=O)[C@](C)(Cc2ccccc2F)NC(=O)[C@@H](NC(=O)CNC(=O)[C@H](Cc2nn[nH]n2)NC(=O)C(C)(C)C(=O)NCCc2cnc[nH]2)[C@@H](C)O)[C@@H](C)O)C(=O)N[C@@H](CCCc2cc(C)cc(C)c2)C(C)=O)cc1 [M2547] |  |  | 

Row | Structure (SMILES) | S/N ([2]; HEK293/CRE-Luc/hGLP1R) | EC50 [2, 3] [nM] | Relative Potency (% M2361 EC50) ([2]; HEK293/CRE-Luc/hGLP1R) [%] | Relative Signal:Noise (% M2361) ([2]; HEK293/CRE-Luc/hGLP1R) [%] | S/N [1] | EC50 [1] [nM] | EC50 ([2]; text b1830, read-out: EC50 in HEK293/CRE-Luc/hGLP1R cells) [nM]
6 | CCc1cc(OCCCCNC(=O)[C@H](CO)NC(=O)CNC(=O)CNC(=O)CNC(=O)CNC(=O)[C@H](CO)NC(=O)CNC(=O)CNC(=O)CNC(=O)CNC(=O)CCC(=O)N2Cc3ccccc3C#Cc3ccccc32)ccc1-c1ccc(C[C@H](NC(=O)[C@H](CC(=O)O)NC(=O)[C@H](CO)NC(=O)[C@@H](NC(=O)[C@](C)(Cc2ccccc2F)NC(=O)[C@@H](NC(=O)CNC(=O)[C@H](Cc2nn[nH]n2)NC(=O)C(C)(C)C(=O)NCCc2cnc[nH]2)[C@@H](C)O)[C@@H](C)O)C(=O)N[C@@H](CCCc2cc(C)cc(C)c2)C(N)=O)cc1 [LP17, DIBAC- suc-G4S- G4S-P9] | 258.0 | 0.0542 | 50.4 | 109.4 |  |  | 
7 | CCc1cc(OCCCCN=[N+]=[N-])ccc1-c1ccc(C[C@H](NC(=O)[C@H](CC(=O)O)NC(=O)[C@H](CO)NC(=O)[C@@H](NC(=O)[C@](C)(Cc2ccccc2F)NC(=O)[C@@H](NC(=O)CNC(=O)[C@@H](N)Cc2nn[nH]n2)[C@@H](C)O)[C@@H](C)O)C(=O)N[C@@H](CCCc2cc(C)cc(C)c2)C(N)=O)cc1 [M2383] (H-[Ala(1H-tetrazol-5-yl)]GT[αMePhe(2-F)]TSD[Bip(2'-Et,4'-O(CH2)4N3)][Nva(5-(3,5-Me2Ph))]-NH2) | 293.3 | > 200 | 0.0 | 89.4 | 1.8 | > 200 | > 20
